Legend:
CAMKK2 = target: T1, CAMKK2 (Homo sapiens, UniProt Q96RR4); assay: Kinobeads competition binding: CAMKK2; conditions: target CAMKK2
T1 construct: endogenous in cells
Excerpt: Supplement 41589_2023_1459_MOESM4_ESM.xlsx, sheet "CATDS matrix" | column: CAMKK2

CSNK1D = target: T2, CSNK1D (Homo sapiens, UniProt P48730); assay: Kinobeads competition binding: CSNK1D; conditions: target CSNK1D
T2 construct: endogenous in cells

FES = target: T3, FES (Homo sapiens, UniProt P07332); assay: Kinobeads competition binding: FES; conditions: target FES;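 note: selectivity score: engagement of this protein divided by summed engagement of all targets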
T3 construct: endogenous in cells
Excerpt: Supplement 41589_2023_1459_MOESM4_ESM.xlsx, sheet "CATDS matrix" | column: FES

PAK4 = target: T4, PAK4 (Homo sapiens, UniProt O96013); assay: Kinobeads full dose-response competition binding: PAK4; conditions: Gene Name PAK4; for Relative Intensity 0.3nM: 0.3nM compound; for Relative Intensity 0.3nM / Relative Intensity 1nM / Relative Intensity 3nM / Relative Intensity 10nM / Relative Intensity 30nM / Relative Intensity 100nM / Relative Intensity 300nM / Relative Intensity 1000nM: DMSO = 1; for Relative Intensity 1nM: 1nM compound; for Relative Intensity 3nM: 3nM compound; for Relative Intensity 10nM: 10nM compound; for Relative Intensity 30nM: 30nM compound; for Relative Intensity 100nM: 100nM compound; for Relative Intensity 300nM: 300nM compound; for Relative Intensity 1000nM: 1000nM compound
T4 construct: a mixture of lysates from five cancer cell lines; endogenous in cells

GSK3A = target: T5, GSK3A (Homo sapiens, UniProt P49840); assay: Kinobeads full dose-response competition binding: GSK3A; conditions: Gene Name GSK3A; for Relative Intensity 0.3nM: 0.3nM compound; for Relative Intensity 0.3nM / Relative Intensity 1nM / Relative Intensity 3nM / Relative Intensity 10nM / Relative Intensity 30nM / Relative Intensity 100nM / Relative Intensity 300nM / Relative Intensity 1000nM: DMSO = 1; for Relative Intensity 1nM: 1nM compound; for Relative Intensity 3nM: 3nM compound; for Relative Intensity 10nM: 10nM compound; for Relative Intensity 30nM: 30nM compound; for Relative Intensity 100nM: 100nM compound; for Relative Intensity 300nM: 300nM compound; for Relative Intensity 1000nM: 1000nM compound; for Kd: EC50 with Correction, read-out: apparent Kd; for Kd / EC50: doses in nM; for EC50: eight-dose curve fit
T5 construct: endogenous in cells

LATS1 = target: T6, LATS1 (Homo sapiens, UniProt O95835); assay: Kinobeads full dose-response competition binding: LATS1; conditions: Gene Name LATS1; for Relative Intensity 0.3nM: 0.3nM compound; for Relative Intensity 0.3nM / Relative Intensity 1nM / Relative Intensity 3nM / Relative Intensity 10nM / Relative Intensity 30nM / Relative Intensity 100nM / Relative Intensity 300nM / Relative Intensity 1000nM: DMSO = 1; for Relative Intensity 1nM: 1nM compound; for Relative Intensity 3nM: 3nM compound; for Relative Intensity 10nM: 10nM compound; for Relative Intensity 30nM: 30nM compound; for Relative Intensity 100nM: 100nM compound; for Relative Intensity 300nM: 300nM compound; for Relative Intensity 1000nM: 1000nM compound; for Kd: EC50 with Correction, read-out: apparent Kd; for Kd / EC50: doses in nM; for EC50: eight-dose curve fit
T6 construct: endogenous in cells
T6 sequence (O95835 1-1130): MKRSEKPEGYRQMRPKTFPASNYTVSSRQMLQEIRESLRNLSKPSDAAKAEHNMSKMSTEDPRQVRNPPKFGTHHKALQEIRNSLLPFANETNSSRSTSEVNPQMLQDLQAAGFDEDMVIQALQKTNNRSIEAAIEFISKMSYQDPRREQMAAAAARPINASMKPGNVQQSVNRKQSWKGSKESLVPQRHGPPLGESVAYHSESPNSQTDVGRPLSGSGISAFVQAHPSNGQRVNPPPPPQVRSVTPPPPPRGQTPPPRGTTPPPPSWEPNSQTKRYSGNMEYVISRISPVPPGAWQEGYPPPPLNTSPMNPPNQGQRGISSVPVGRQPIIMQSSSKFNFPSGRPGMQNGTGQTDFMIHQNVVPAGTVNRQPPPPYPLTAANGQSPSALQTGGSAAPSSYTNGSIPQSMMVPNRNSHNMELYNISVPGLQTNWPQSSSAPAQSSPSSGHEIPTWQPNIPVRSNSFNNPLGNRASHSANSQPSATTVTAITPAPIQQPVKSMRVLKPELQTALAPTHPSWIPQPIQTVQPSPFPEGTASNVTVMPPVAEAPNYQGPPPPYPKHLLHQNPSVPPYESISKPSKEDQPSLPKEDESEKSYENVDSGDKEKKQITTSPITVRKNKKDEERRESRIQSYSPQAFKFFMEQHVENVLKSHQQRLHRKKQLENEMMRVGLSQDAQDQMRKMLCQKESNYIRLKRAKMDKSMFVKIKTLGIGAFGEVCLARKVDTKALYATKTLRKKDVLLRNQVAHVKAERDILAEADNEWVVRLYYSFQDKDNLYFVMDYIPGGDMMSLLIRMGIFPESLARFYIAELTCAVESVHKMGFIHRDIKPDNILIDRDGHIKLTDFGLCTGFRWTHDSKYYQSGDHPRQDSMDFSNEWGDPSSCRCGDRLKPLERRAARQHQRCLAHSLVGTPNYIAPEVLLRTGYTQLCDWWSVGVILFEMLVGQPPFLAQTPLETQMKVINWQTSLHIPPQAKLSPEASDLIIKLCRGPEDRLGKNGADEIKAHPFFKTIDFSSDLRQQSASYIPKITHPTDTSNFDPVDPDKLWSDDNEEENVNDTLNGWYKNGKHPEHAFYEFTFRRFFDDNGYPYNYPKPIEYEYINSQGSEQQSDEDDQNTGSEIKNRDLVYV

PKN1 = target: T7, PKN1 (Homo sapiens, UniProt Q16512); assay: Kinobeads full dose-response competition binding: PKN1; conditions: Gene Name PKN1; for Relative Intensity 0.3nM: 0.3nM compound; for Relative Intensity 0.3nM / Relative Intensity 1nM / Relative Intensity 3nM / Relative Intensity 10nM / Relative Intensity 30nM / Relative Intensity 100nM / Relative Intensity 300nM / Relative Intensity 1000nM: DMSO = 1; for Relative Intensity 1nM: 1nM compound; for Relative Intensity 3nM: 3nM compound; for Relative Intensity 10nM: 10nM compound; for Relative Intensity 30nM: 30nM compound; for Relative Intensity 100nM: 100nM compound; for Relative Intensity 300nM: 300nM compound; for Relative Intensity 1000nM: 1000nM compound
T7 construct: a mixture of lysates from five cancer cell lines; endogenous in cells

PRKX = target: T8, PRKX (Homo sapiens, UniProt P51817); assay: Kinobeads full dose-response competition binding: PRKX; conditions: Gene Name PRKX; for Relative Intensity 0.3nM: 0.3nM compound; for Relative Intensity 0.3nM / Relative Intensity 1nM / Relative Intensity 3nM / Relative Intensity 10nM / Relative Intensity 30nM / Relative Intensity 100nM / Relative Intensity 300nM / Relative Intensity 1000nM: DMSO = 1; for Relative Intensity 1nM: 1nM compound; for Relative Intensity 3nM: 3nM compound; for Relative Intensity 10nM: 10nM compound; for Relative Intensity 30nM: 30nM compound; for Relative Intensity 100nM: 100nM compound; for Relative Intensity 300nM: 300nM compound; for Relative Intensity 1000nM: 1000nM compound; for Kd: EC50 with Correction, read-out: apparent Kd; for Kd / EC50: doses in nM; for EC50: eight-dose curve fit
T8 construct: endogenous in cells
T8 sequence (P51817 1-358): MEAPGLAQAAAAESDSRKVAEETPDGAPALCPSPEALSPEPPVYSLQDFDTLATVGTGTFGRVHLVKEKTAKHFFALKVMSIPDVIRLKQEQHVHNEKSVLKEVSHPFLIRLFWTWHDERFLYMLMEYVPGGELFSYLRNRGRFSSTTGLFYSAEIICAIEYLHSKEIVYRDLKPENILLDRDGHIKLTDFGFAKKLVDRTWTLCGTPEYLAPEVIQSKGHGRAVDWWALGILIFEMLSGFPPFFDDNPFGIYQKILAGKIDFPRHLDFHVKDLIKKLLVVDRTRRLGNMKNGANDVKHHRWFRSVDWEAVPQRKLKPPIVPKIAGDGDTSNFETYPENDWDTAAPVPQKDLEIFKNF

[1] = EC50 with Correction, doses in nM, read-out: apparent Kd
[2] = eight-dose curve fit, doses in nM

T7 sequence (Q16512 whole entry): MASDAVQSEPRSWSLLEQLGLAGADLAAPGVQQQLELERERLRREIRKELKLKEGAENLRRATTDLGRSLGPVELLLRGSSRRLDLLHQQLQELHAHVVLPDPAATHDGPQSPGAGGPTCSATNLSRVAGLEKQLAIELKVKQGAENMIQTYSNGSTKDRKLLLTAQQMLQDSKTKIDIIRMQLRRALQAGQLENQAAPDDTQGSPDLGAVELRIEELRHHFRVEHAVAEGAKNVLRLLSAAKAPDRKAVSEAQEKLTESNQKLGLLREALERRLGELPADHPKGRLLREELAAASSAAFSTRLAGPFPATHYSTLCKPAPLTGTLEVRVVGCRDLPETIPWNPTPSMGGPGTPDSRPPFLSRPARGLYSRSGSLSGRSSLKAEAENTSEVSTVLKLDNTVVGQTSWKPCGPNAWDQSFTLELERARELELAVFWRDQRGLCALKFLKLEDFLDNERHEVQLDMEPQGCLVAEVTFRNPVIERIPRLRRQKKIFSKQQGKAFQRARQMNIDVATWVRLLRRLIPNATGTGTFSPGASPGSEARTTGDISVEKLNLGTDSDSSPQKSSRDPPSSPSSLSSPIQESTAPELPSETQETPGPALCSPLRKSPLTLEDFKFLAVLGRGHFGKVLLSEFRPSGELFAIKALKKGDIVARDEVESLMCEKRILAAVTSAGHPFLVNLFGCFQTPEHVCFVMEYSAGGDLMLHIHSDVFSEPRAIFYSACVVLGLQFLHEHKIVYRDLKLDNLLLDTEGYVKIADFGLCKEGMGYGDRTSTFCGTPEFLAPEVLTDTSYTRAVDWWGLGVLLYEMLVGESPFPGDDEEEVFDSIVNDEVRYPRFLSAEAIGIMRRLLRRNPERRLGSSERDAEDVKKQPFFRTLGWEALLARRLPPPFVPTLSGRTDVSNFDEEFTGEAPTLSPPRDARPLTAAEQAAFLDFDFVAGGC
T5 sequence (P49840 whole entry): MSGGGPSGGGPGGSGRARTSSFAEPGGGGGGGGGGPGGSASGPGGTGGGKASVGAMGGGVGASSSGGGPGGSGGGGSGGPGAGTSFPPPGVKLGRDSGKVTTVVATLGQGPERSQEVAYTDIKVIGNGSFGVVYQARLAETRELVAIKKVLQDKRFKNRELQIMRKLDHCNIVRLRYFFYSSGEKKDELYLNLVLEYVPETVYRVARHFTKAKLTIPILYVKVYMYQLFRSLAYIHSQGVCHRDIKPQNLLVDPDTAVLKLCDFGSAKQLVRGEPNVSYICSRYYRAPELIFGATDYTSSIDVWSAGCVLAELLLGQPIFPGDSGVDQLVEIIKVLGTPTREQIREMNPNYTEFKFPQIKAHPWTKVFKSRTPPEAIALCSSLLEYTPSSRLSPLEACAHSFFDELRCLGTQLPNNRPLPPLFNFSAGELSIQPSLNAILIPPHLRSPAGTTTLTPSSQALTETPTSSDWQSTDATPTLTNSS
T4 sequence (O96013 whole entry): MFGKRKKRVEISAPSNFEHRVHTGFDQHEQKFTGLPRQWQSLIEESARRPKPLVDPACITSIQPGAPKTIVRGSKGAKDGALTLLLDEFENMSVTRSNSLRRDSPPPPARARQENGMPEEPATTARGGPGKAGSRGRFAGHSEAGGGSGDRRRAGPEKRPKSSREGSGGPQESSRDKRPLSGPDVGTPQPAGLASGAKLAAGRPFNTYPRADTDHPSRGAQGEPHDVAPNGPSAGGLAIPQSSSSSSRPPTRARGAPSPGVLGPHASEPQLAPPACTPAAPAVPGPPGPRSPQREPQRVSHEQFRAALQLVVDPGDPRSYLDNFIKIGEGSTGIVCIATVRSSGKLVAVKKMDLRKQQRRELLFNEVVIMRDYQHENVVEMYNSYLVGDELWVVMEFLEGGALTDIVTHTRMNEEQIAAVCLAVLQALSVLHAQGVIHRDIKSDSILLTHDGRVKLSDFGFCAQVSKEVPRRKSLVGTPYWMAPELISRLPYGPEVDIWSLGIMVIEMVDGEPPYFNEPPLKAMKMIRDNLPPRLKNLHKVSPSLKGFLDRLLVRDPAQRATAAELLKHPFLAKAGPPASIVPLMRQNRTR
T2 sequence (P48730 whole entry): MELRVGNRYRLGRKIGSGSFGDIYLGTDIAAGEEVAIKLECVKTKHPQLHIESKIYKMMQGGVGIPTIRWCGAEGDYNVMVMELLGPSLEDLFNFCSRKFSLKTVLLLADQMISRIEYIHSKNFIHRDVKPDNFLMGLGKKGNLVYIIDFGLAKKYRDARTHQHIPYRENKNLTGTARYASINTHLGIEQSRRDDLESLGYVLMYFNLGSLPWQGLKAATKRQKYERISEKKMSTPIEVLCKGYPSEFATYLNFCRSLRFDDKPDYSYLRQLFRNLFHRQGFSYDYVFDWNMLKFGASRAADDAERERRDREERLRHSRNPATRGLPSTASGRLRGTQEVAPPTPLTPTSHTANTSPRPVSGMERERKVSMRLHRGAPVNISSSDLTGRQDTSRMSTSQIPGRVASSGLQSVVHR
T3 sequence (P07332 whole entry): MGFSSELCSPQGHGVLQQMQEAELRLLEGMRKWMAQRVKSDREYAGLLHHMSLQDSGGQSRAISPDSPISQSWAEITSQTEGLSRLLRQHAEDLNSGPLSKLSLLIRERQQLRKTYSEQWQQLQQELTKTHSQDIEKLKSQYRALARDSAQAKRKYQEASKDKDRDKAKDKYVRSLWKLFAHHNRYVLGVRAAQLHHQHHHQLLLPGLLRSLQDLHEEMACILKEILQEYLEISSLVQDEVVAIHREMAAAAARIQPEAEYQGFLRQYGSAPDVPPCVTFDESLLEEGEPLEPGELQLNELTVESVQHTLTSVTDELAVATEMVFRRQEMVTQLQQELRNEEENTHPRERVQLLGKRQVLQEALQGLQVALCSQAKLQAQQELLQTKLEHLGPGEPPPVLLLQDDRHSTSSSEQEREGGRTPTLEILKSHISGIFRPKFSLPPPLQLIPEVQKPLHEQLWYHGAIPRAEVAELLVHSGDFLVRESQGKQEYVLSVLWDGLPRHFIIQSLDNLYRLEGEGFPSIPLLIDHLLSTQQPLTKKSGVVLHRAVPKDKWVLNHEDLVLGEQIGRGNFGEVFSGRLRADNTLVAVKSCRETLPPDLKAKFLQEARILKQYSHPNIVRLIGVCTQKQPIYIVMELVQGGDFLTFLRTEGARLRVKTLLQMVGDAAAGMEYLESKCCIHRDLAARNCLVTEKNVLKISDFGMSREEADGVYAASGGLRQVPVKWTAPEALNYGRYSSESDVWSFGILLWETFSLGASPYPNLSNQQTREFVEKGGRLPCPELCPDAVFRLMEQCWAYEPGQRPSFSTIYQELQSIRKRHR
T1 sequence (Q96RR4 whole entry): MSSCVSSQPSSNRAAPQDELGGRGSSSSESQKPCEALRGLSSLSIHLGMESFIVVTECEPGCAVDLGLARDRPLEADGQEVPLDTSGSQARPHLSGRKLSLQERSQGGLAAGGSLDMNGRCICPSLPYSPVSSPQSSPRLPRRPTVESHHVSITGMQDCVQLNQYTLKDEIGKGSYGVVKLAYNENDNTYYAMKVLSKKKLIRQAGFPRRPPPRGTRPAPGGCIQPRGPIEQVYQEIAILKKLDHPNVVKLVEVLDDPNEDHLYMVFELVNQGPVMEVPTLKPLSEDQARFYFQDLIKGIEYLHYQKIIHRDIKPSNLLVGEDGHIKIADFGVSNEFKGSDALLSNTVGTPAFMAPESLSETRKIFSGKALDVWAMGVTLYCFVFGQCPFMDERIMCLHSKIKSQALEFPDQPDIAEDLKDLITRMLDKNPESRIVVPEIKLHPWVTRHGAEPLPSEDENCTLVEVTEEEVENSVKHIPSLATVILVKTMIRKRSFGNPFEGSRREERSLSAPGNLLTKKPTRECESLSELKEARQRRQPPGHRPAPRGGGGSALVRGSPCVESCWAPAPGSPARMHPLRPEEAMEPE

CN(C)C/C=C/C(=O)Nc1cc2c(Nc3ccc(F)c(Cl)c3)ncnc2cc1O[C@H]1CCOC1 [Afatinib]
CATDS (CAMKK2): 0
CATDS (CSNK1D): 0
CATDS (FES): 0

CCn1c(-c2nonc2N)nc2c(C#CC(C)(C)O)nc(OCCNC)cc21 [GSK949675A]
Relative Intensity 0.3nM (PAK4): 1.024
Relative Intensity 1nM (PAK4): 1.092
Relative Intensity 3nM (PAK4): 1.039
Relative Intensity 10nM (PAK4): 0.9797
Relative Intensity 30nM (PAK4): 0.9918
Relative Intensity 100nM (PAK4): 0.907
Relative Intensity 300nM (PAK4): 0.6926
Relative Intensity 1000nM (PAK4): 0.4818
Kd (PAK4; [1]): 218 nM
EC50 (PAK4; [2]): 316 nM
Relative Intensity 0.3nM (GSK3A): 1.008
Relative Intensity 1nM (GSK3A): 1.091
Relative Intensity 3nM (GSK3A): 1.095
Relative Intensity 10nM (GSK3A): 0.9753
Relative Intensity 30nM (GSK3A): 1.009
Relative Intensity 100nM (GSK3A): 0.7508
Relative Intensity 300nM (GSK3A): 0.4472
Relative Intensity 1000nM (GSK3A): 0.237
Kd (GSK3A): 104 nM
EC50 (GSK3A): 167 nM
Relative Intensity 0.3nM (LATS1): 1.0287
Relative Intensity 1nM (LATS1): 1.07
Relative Intensity 3nM (LATS1): 1.096
Relative Intensity 10nM (LATS1): 1.105
Relative Intensity 30nM (LATS1): 1.087
Relative Intensity 100nM (LATS1): 0.897
Relative Intensity 300nM (LATS1): 0.6219
Relative Intensity 1000nM (LATS1): 0.3635
Kd (LATS1): 238 nM
EC50 (LATS1): 238 nM
Relative Intensity 0.3nM (PKN1): 1.026
Relative Intensity 1nM (PKN1): 1.04
Relative Intensity 3nM (PKN1): 1.011
Relative Intensity 10nM (PKN1): 0.946
Relative Intensity 30nM (PKN1): 0.9307
Relative Intensity 100nM (PKN1): 0.9366
Relative Intensity 300nM (PKN1): 0.7358
Relative Intensity 1000nM (PKN1): 0.4262
Relative Intensity 0.3nM (PRKX): 1.295
Relative Intensity 1nM (PRKX): 1.2278
Relative Intensity 3nM (PRKX): 1.244
Relative Intensity 10nM (PRKX): 1.16
Relative Intensity 30nM (PRKX): 1.169
Relative Intensity 100nM (PRKX): 0.9393
Relative Intensity 300nM (PRKX): 0.5982
Relative Intensity 1000nM (PRKX): 0.3002
Kd (PRKX): 221 nM
EC50 (PRKX): 221 nM

CCn1c(-c2nonc2N)nc2c(C#CC(C)(C)O)nc(OCCN)cc21 [GSK902056A]
Relative Intensity 0.3nM (PAK4): 1.05
Relative Intensity 1nM (PAK4): 1.027
Relative Intensity 3nM (PAK4): 1.044
Relative Intensity 10nM (PAK4): 0.9586
Relative Intensity 30nM (PAK4): 0.8645
Relative Intensity 100nM (PAK4): 0.8782
Relative Intensity 300nM (PAK4): 0.7175
Relative Intensity 1000nM (PAK4): 0.4475
Relative Intensity 0.3nM (GSK3A): 0.9894
Relative Intensity 1nM (GSK3A): 1.046
Relative Intensity 3nM (GSK3A): 1.057
Relative Intensity 10nM (GSK3A): 0.9554
Relative Intensity 30nM (GSK3A): 0.7994
Relative Intensity 100nM (GSK3A): 0.6557
Relative Intensity 300nM (GSK3A): 0.3972
Relative Intensity 1000nM (GSK3A): 0.1852
Kd (GSK3A): 164 nM
EC50 (GSK3A): 173 nM
Relative Intensity 0.3nM (LATS1): 0.9708
Relative Intensity 1nM (LATS1): 1.022
Relative Intensity 3nM (LATS1): 1.017
Relative Intensity 10nM (LATS1): 1.027
Relative Intensity 30nM (LATS1): 0.7859
Relative Intensity 100nM (LATS1): 0.4584
Relative Intensity 300nM (LATS1): 0.1984
Relative Intensity 1000nM (LATS1): 0.02738
Kd (LATS1): 87.4 nM
EC50 (LATS1): 87.4 nM
Relative Intensity 0.3nM (PKN1): 0.9859
Relative Intensity 1nM (PKN1): 1.011
Relative Intensity 3nM (PKN1): 0.9965
Relative Intensity 10nM (PKN1): 0.9627
Relative Intensity 30nM (PKN1): 0.7754
Relative Intensity 100nM (PKN1): 0.5397
Relative Intensity 300nM (PKN1): 0.2684
Relative Intensity 1000nM (PKN1): 0.1427
Kd (PKN1; [1]): 92.3 nM
EC50 (PKN1; [2]): 92.3 nM
Relative Intensity 0.3nM (PRKX): 0.9197
Relative Intensity 1nM (PRKX): 0.9321
Relative Intensity 3nM (PRKX): 1.015
Relative Intensity 10nM (PRKX): 0.9379
Relative Intensity 30nM (PRKX): 0.8892
Relative Intensity 100nM (PRKX): 0.6426
Relative Intensity 300nM (PRKX): 0.2553
Relative Intensity 1000nM (PRKX): 0.1464
Kd (PRKX): 127 nM
EC50 (PRKX): 127 nM

Source: publication PMC11062922 (Nature Chemical Biology, 2023)
